Experimental data taken from patent US20030022821A1, “Bioactive peptides” (priority 1998, published 2003).
In brackets after ≈: the same amount, converted by molar mass. Like-named read-outs stand apart in the source and are kept apart here. Ends that are not written are not given here. Peptide text beside a SMILES is read from it. * marks the point of attachment. Acm = CC(=O)NC*

Tests used:
Assay type in all cases: cell-based
[1] = test system: Escherichia coli ATCC 25922
Experimental: (§1) The bacterial strains used were: Escherichia coli ATCC 25922 and Staphylococcus aureus ATCC 25923. All strains were stored at −70° C. The bacteria were grown in 2% Bacto Peptone water (Difco 1807-17-4). All tests were performed with bacteria in mid-logarithmic growth phase. Determination of the minimum inhibitory concentration (MIC) of the peptides for bacterial strains were performed in 1% Bacto Peptone water. A standard microdilution technique with an inoculum of 2×10^6 CFU/ml was used. All assays were performed in triplets. Since the peptides are positively charged and therefore could adhere to the plastic wells, we controlled the actual concentration of the peptides in the solution by HPLC. There was no difference between the concentration of the peptides before or after adding the solution to the plastic wells.

[2] = test system: Staphylococcus aureus ATCC 25923
Experimental: as §1

human red blood cells = test: Hemolytic assay; settings: for % Hemolysis 10 μg/ml / % Hemolysis 100 μg/ml: red cells of human
Experimental: The hemolytic activities of the peptides were determined using fresh human red blood cells. 8 ml blood was taken from a healthy person. 4 ml blood was transferred to a polycarbonate tube containing heparin to a final concentration of 10 U/ml, and the remaining 4 ml blood was transferred to a glass tube containing EDTA with final concentration of 15% EDTA. The erythrocytes were isolated from heparin-treated blood by centrifugation in 1500 rpm for 10 min and washed three times with phosphate-buffered saline (PBS) to remove plasma and buffy coat. The cell pellet was resuspended in PBS to make the final volume of 4 ml. The peptide was diluted to a concentration of 2 mg/ml and 0.1 mg/ml. The peptide was further diluted to the concentrations as stated in Table 15. For each tube PBS was added first, then RBCs and peptide solutions. The hematocrit in the blood treated with EDTA was determined after 30 min with Sysmex K-1000, and the resuspended RBCs were diluted into 10% hematocrit. RBCs in PBS (1%) with and without peptides (Table 15) were incubated in a shaker at […] for 1 hour and then centrifuged at 4000 rpm for 5 min. The supernatant were carefully transferred to new polycarbonate tubes and the absorbance of the supernatant was measured at 540 nm. Baseline hemolysis was hemoglobin released in the presence of PBS, and 100% hemolysis was hemoglobin released in the presence of 0.1% Triton X-100.

Row | Molecule | % Hemolysis 10 μg/ml (human red blood cells) [%] | MIC E. coli ([1]; ATCC 25922) [µg/mL] | MIC S. aureus ([2]; ATCC 25923) [µg/mL] | % Hemolysis 100 μg/ml (human red blood cells) [%] | also measured
1 | CSCC[C@@H](NC(=O)[C@@H](CCCNC(=N)N)NC(=O)[C@@H](Cc1c[nH]c2ccccc12)NC(=O)[C@@H](CCC(N)=O)NC(=O)[C@@H](Cc1c[nH]c2ccccc12)NC(=O)[C@@H](CCCNC(=N)N)NC(=O)[C@@H](CCCNC(=N)N)NC(=O)[C@@H](CSCNC(C)=O)NC(=O)[C@@H](CCCCN)NC(=O)[C@H](N)Cc1ccccc1)C(=O)N[C@H](CCCCN)C(=O)N[C@H](CCCCN)C(=O)N[C@H](CC(C)C)C(=O)NCC(=O)N[C@H](C)C(=O)O [Enantio LFB 17-31] | 3.05 | – | – | – | MIC E. coli ([1]; Table 3): 7.5 µg/mL (≈ 3.63 µM); MIC S. aureus ([2]; Table 3, unit assumed): 60 µg/mL (≈ 29 µM)
2 | CSCC[C@H](NC(=O)[C@H](CCCNC(=N)N)NC(=O)[C@H](Cc1c[nH]c2ccccc12)NC(=O)[C@H](CCC(N)=O)NC(=O)[C@H](C)NC(=O)[C@H](CCCNC(=N)N)NC(=O)[C@H](CCCNC(=N)N)NC(=O)[C@H](CSCNC(C)=O)NC(=O)[C@H](CCCCN)NC(=O)[C@@H](N)Cc1ccccc1)C(=O)N[C@@H](CCCCN)C(=O)N[C@@H](CCCCN)C(=O)N[C@@H](CC(C)C)C(=O)NCC(=O)N[C@@H](C)C(=O)O [LFB A6] (H-FKC(Acm)RRAQWRMKKLGA-OH; N-terminus assumed) | 2.78 | >200 | >200 | 3.27 | –
3 | CSCC[C@H](NC(=O)[C@H](CCCNC(=N)N)NC(=O)[C@H](Cc1c[nH]c2ccccc12)NC(=O)[C@H](CCC(N)=O)NC(=O)[C@H](Cc1c[nH]c2ccccc12)NC(=O)[C@H](CCCNC(=N)N)NC(=O)[C@H](Cc1ccccc1)NC(=O)[C@H](CSCNC(C)=O)NC(=O)[C@H](CCCCN)NC(=O)[C@@H](N)Cc1ccccc1)C(=O)N[C@@H](CCCCN)C(=O)N[C@@H](CCCCN)C(=O)N[C@@H](CC(C)C)C(=O)NCC(=O)N[C@@H](C)C(=O)O [LFB F4] (H-FKC(Acm)FRWQWRMKKLGA-OH; N-terminus and C-terminus assumed) | 2.4 | – | – | 3.2 | MIC E. coli ATCC 25922 ([1]; ATCC 25922): 20 µg/mL; MIC E. coli ATCC 25922 ([1]; Table 1, value in brackets): 10 µM; MIC E. coli ([1]; Table 12): 20 µg/mL (≈ 9.73 µM); MIC S. aureus ATCC 25923 ([2]; ATCC 25923): 200 µg/mL; MIC S. aureus ATCC 25923 ([2]; Table 1, value in brackets): 100 µM; MIC S. aureus ([2]; Table 12): 200 µg/mL (≈ 97.3 µM)
4 | CSCC[C@H](NC(=O)[C@H](CCCNC(=N)N)NC(=O)[C@H](Cc1c(S(=O)(=O)c2c(C)c(C)c3c(c2C)CCC(C)(C)O3)[nH]c2ccccc12)NC(=O)[C@H](CCC(N)=O)NC(=O)[C@H](Cc1ccc2ccccc2c1)NC(=O)[C@H](CCCNC(=N)N)NC(=O)[C@H](CCCNC(=N)N)NC(=O)[C@H](CSCNC(C)=O)NC(=O)[C@H](CCCCN)NC(=O)[C@@H](N)Cc1ccccc1)C(=O)N[C@@H](CCCCN)C(=O)N[C@@H](CCCCN)C(=O)N[C@@H](CC(C)C)C(=O)NCC(=O)N[C@@H](C)C(=O)O [LFB Nal6 PMC] | 2.8 | 25 (≈ 10.7 µM) | 20 (≈ 8.54 µM) | 17.8 | –
5 | CSCC[C@H](NC(=O)[C@H](CCCNC(=N)N)NC(=O)[C@H](Cc1c[nH]c2ccccc12)NC(=O)[C@H](CCC(N)=O)NC(=O)[C@H](Cc1ccc2ccccc2c1)NC(=O)[C@H](CCCNC(=N)N)NC(=O)[C@H](CCCNC(=N)N)NC(=O)[C@H](CSCNC(C)=O)NC(=O)[C@H](CCCCN)NC(=O)[C@@H](N)Cc1ccccc1)C(=O)N[C@@H](CCCCN)C(=O)N[C@@H](CCCCN)C(=O)N[C@@H](CC(C)C)C(=O)NCC(=O)N[C@@H](C)C(=O)O [LFB Nal6] | 2.2 | 20 (≈ 9.63 µM) | 75 (≈ 36.1 µM) | 4.4 | –
6 | CSCC[C@H](NC(=O)[C@H](CCCNC(=N)N)NC(=O)[C@H](Cc1ccc2ccccc2c1)NC(=O)[C@H](CCC(N)=O)NC(=O)[C@H](Cc1c(S(=O)(=O)c2c(C)c(C)c3c(c2C)CCC(C)(C)O3)[nH]c2ccccc12)NC(=O)[C@H](CCCNC(=N)N)NC(=O)[C@H](CCCNC(=N)N)NC(=O)[C@H](CSCNC(C)=O)NC(=O)[C@H](CCCCN)NC(=O)[C@@H](N)Cc1ccccc1)C(=O)N[C@@H](CCCCN)C(=O)N[C@@H](CCCCN)C(=O)N[C@@H](CC(C)C)C(=O)NCC(=O)N[C@@H](C)C(=O)O [LFB Nal8 PMC] | 6.96 | 20 (≈ 8.54 µM) | 10 (≈ 4.27 µM) | 18.86 | –
7 | CSCC[C@H](NC(=O)[C@H](CCCNC(=N)N)NC(=O)[C@H](Cc1ccc2ccccc2c1)NC(=O)[C@H](CCC(N)=O)NC(=O)[C@H](Cc1c[nH]c2ccccc12)NC(=O)[C@H](CCCNC(=N)N)NC(=O)[C@H](CCCNC(=N)N)NC(=O)[C@H](CSCNC(C)=O)NC(=O)[C@H](CCCCN)NC(=O)[C@@H](N)Cc1ccccc1)C(=O)N[C@@H](CCCCN)C(=O)N[C@@H](CCCCN)C(=O)N[C@@H](CC(C)C)C(=O)NCC(=O)N[C@@H](C)C(=O)O [LFB Nal8] | 3 | 10 (≈ 4.82 µM) | 50 (≈ 24.1 µM) | 4.7 | –
8 | CSCC[C@H](NC(=O)[C@H](CCCNC(=N)N)NC(=O)[C@H](Cc1c[nH]c2ccccc12)NC(=O)[C@H](CCC(N)=O)NC(=O)[C@H](Cc1c[nH]c2ccccc12)NC(=O)[C@H](CCCNC(=N)N)NC(=O)[C@H](CCCNC(=N)N)NC(=O)[C@H](Cc1c[nH]c2ccccc12)NC(=O)[C@H](CCCCN)NC(=O)[C@@H](N)Cc1ccccc1)C(=O)N[C@@H](CCCCN)C(=O)N[C@@H](CCCCN)C(=O)N[C@@H](CC(C)C)C(=O)NCC(=O)N[C@@H](C)C(=O)O [LFB W3, H2N-Phe-Lys-Trp-Arg-Arg-Trp-Gln-Trp-Arg-Met-Lys-Lys-Leu-Gly-Ala-COOH] | 2.3 | 20 (≈ 9.63 µM) | 20 (≈ 9.63 µM) | 3.8 | MIC E. coli ([1]; Table 6): 20 µg/mL (≈ 9.63 µM); MIC S. aureus ([2]; Table 6, unit assumed): 20 µg/mL (≈ 9.63 µM)
9 | CC[C@H](C)[C@H](NC(=O)[C@H](CCCCN)NC(=O)[C@H](Cc1c[nH]c2ccccc12)NC(=O)[C@H](CCC(N)=O)NC(=O)[C@H](Cc1c[nH]c2ccccc12)NC(=O)[C@H](CCC(N)=O)NC(=O)[C@H](CCCNC(=N)N)NC(=O)[C@H](CSCNC(C)=O)NC(=O)[C@H](CCCCN)NC(=O)[C@@H](N)CO)C(=O)N[C@@H](CCCNC(=N)N)C(=O)N[C@@H](CCCNC(=N)N)C(=O)N[C@H](C(=O)N[C@@H](CC(N)=O)C(=O)N1CCC[C@H]1C(=O)O)[C@@H](C)O [LFPW8] (H-SKC(Acm)RQWQWKIRRTNP-OH; N-terminus assumed) | – | – | – | – | MIC E. coli ([1]; Table 4): 500 µg/mL (≈ 243 µM); MIC S. aureus ([2]; Table 4, unit assumed): > 1000 µg/mL
10 | H-FKARRWAWRMKKLGA-OH [LFB A3, 7] | – | – | – | – | EC 50 (human red blood cells): >1000 µg/mL; EC50 (human red blood cells): > 525 µM
11 | LFH Pmc: human lactoferricin with Pmc attached to the only available tryptophan | – | – | – | – | MIC E. coli ([1]; Table 5): 25 µg/mL; MIC S. aureus ([2]; Table 5, unit assumed): 50 µg/mL
12 | RRWQWRMKKLGA-OH [LFB 20-31] | – | – | – | – | MIC E. coli ATCC 25922 ([1]; ATCC 25922): 100 µg/mL; MIC E. coli ATCC 25922 ([1]; Table 1, value in brackets): 62 µM; MIC E. coli ([1]; Table 11): 100 µg/mL; MIC S. aureus ATCC 25923 ([2]; ATCC 25923): 200 µg/mL; MIC S. aureus ATCC 25923 ([2]; Table 1, value in brackets): 124 µM; MIC S. aureus ([2]; Table 11): 200 µg/mL
13 | RRWYRWWR-NH2 [LFM 17-24 R1,2, 8 W3, 7Y4NH2] | – | 5 | 2.5 | – | –
14 | SKCRQWQSKIRRTNP [Native LFP, porcine region corresponding to LFB 17-31] | – | – | – | – | MIC E. coli ([1]; Table 4): > 1000 µg/mL; MIC S. aureus ([2]; Table 4, unit assumed): > 1000 µg/mL
15 | TKCFQWQRNMRKVRG [Native LFH] | – | – | – | – | MIC E. coli ([1]; Table 4): > 1000 µg/mL; MIC S. aureus ([2]; Table 4, unit assumed): > 1000 µg/mL
16 | YRMWRWAWRWR-NH2 [LFB 17-27 A7 M3 R2, 11 W4, 10 Y1 NH2] | – | – | – | – | EC50 (human red blood cells): 291 ± 91 µM; EC 50 (human red blood cells; Table 13, toxicity (hemolysis)): 510 ± 160 µg/mL
17 | YRWARWWRR-NH2 [LFM 17-25 A4R2,8, 9W3, 7Y1NH2] | – | 10 | 5 | – | –
